The values below are quoted from earlier work in US20220280561A1, “COPPER-ATSM FOR TREATING NEURODEGENERATIVE DISORDERS ASSOCITED WITH MITOCHONDRIAL DYSFUNCTION” (RESEARCH INSTITUTE AT NATIONWIDE CHILDREN'S HOSPITAL, priority 2019, published 2022).

The data set concerns ALS. The note with it: ALS patients; cited from earlier work.

On to `CC1=NN(c2ccccc2)C(=O)C1` [Edaravone], for which the “patient quality of life” value is on record as “significant impact on patient quality of life”.

For `Nc1nc2ccc(OC(F)(F)F)cc2s1` [Riluzole], the lifespan entry is listed as “modestly extending lifespan”.
